Experimental data from ChEMBL document CHEMBL1142400, “An updated steroid benchmark set and its application in the discovery of novel nanomolar ligands of sex hormone-binding globulin” (J Med Chem, 2008).

Target: T1, Sex hormone-binding globulin (Homo sapiens, UniProt P04278)
T1 sequence (P04278 whole entry): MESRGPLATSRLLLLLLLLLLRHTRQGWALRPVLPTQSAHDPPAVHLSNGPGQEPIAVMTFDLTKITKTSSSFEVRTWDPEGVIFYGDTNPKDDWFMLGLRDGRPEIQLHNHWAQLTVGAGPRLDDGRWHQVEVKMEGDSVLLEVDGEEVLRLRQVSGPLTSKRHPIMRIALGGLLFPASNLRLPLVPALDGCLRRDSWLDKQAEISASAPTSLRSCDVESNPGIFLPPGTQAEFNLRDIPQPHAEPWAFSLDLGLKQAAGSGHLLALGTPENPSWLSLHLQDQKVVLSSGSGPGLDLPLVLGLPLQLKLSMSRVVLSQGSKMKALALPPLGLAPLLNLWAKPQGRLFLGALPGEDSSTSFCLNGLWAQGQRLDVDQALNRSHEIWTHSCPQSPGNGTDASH
Experiment: Displacement of [3H]5alpha dihydrotestosterone from human sex hormone binding globulin

Row | SMILES | Kd [nM]
1 | C[C@@H]1C[C@H]2CC(=O)CC[C@]2(C)[C@H]2CC[C@]3(C)[C@@H](O)CC[C@H]3[C@H]12 | 0.417
2 | C[C@]12CC[C@@H](O)C[C@H]1CC[C@@H]1[C@@H]2CC[C@]2(C)C(=O)CC[C@@H]12 [ETIOCHOLANOLONE] | 708
3 | O=C1C[C@@H](c2ccc(O)cc2)Oc2cc(O)cc(O)c21 (stereo in doubt; 90) [NARINGENIN] | 955
4 | Cc1c(O)ccc(C(=O)Cc2ccccc2Cl)c1O | 2190
5 | CCCCCCCCCc1ccc(O)cc1 [4-NONYLPHENOL] | 1200
6 | C[C@]12CC[C@H]3C(=CCc4cc(O)ccc43)[C@@H]1CC[C@@H]2O | 2.4
7 | CC(=O)[C@@]1(O)CC[C@H]2[C@@H]3CC=C4C[C@@H](O)CC[C@]4(C)[C@H]3CC[C@@]21C | 437
8 | CC(=O)[C@H]1CC[C@H]2[C@@H]3CCC4=CC(=O)CC[C@]4(C)[C@H]3CC[C@]12C [PROGESTERONE] | 115
9 | COc1cc(C[C@H]2COC(=O)[C@@H]2Cc2ccc(O)c(OC)c2)ccc1O [MATAIRESINOL] | 309
10 | CCc1cc(C(=O)Cc2ccccc2C)c(O)cc1O | 107
11 | CC(C)(C)CC(C)(C)c1ccc(O)cc1 | 2140
12 | C[C@]12CC[C@H]3[C@@H](CCC4=CC(=O)CC[C@@]43C)[C@@H]1CC[C@@H]2O [TESTOSTERONE] | 0.631
13 | CC1(C)CC2=C3C=C[C@@]4(C)[C@@H](CC[C@]4(C)O)[C@@H]3CCC2=CC1=O | 138
14 | C#C[C@]1(O)CC[C@H]2[C@@H]3CC[C@H]4CC(F)(F)CC[C@]4(C)[C@H]3CC[C@@]21C | 4.37
15 | C[C@]12CCc3c(ccc4cc(O)ccc34)[C@@H]1CCC2=O [EQUILENIN] | 2.4
16 | C[C@]12CC[C@H](O)CC1=CC[C@@H]1[C@@H]2CC[C@]2(C)C(=O)CC[C@@H]12 [PRASTERONE] | 14.5
17 | C[C@]12CCC(=O)C=C1CC[C@@H]1[C@@H]2CC[C@]2(C)C(=O)CC[C@@H]12 [ANDROSTENEDIONE] | 34.7
18 | CC[C@H](C1CCC(O)CC1)[C@@H](CC)C1CCC(O)CC1 (some centres undefined) | 28800
19 | CC1(O)CC[C@H]2[C@@H]3CC=C4CC(O)CC[C@]4(C)[C@H]3CC[C@@]21C (some centres undefined) | 4.37
20 | C[C@]12C[C@H](O)[C@H]3[C@@H](CCC4=CC(=O)CC[C@@]43C)[C@@H]1CC[C@@H]2C(=O)CO [CORTICOSTERONE] | 457
21 | C[C@]12CC[C@H]3[C@@H](CCC4=CC(=O)CC[C@@]43C)[C@@H]1CC[C@@H]2C(=O)CO [DESOXYCORTICOSTERONE] | 41.7
22 | C[C@@H]1CC2CC(=O)CC[C@@H]2[C@H]2CC[C@]3(C)[C@@H](O)CC[C@H]3[C@@H]21 (some centres undefined) | 3.47
23 | C[C@]12CC[C@H]3[C@@H](CC[C@H]4CC(=O)C[C@H](CCCCCCN)[C@@]43C)[C@@H]1CC[C@@H]2O | 29.5
24 | C[C@]12CCC(=O)C=C1CC[C@@H]1[C@@H]2CC[C@@]2(C)[C@H]1CC[C@]2(C)O [METHYLTESTOSTERONE] | 3.72
25 | O=c1c(-c2ccc(O)cc2)coc2cc(O)cc(O)c12 [GENISTEIN] | 39800

Row | SMILES | Kd [nM]
26 | C[C@@H]1C[C@H]2CC(=O)CC[C@]2(C)[C@H]2CC[C@@]3(C)[C@@H](CC[C@]3(C)O)[C@H]12 | 0.891
27 | C[C@]12CC[C@@H]3c4cc(I)c(O)cc4CC[C@H]3[C@@H]1CC[C@@H]2O | 0.479
28 | C#C[C@]1(O)CC[C@H]2[C@@H]3CCC4=C[C@H](O)CC[C@]4(C)C3C(=C)C[C@@]21CC (some centres undefined) | 21.4
29 | C#C[C@]1(O)CC[C@H]2[C@@H]3CCC4=CC(=O)CC[C@@H]4[C@H]3C(=C)C[C@@]21CC [ETONOGESTREL] | 5.89
30 | C#C[C@]1(O)CC[C@H]2[C@@H]3CCC4=Cc5oncc5C[C@]4(C)[C@H]3CC[C@@]21C [DANAZOL] | 6.31
31 | C[C@@H]1CC2=CC(=O)CC[C@]2(C)[C@H]2CC[C@]3(C)[C@@H](O)CC[C@H]3[C@H]12 | 1.95
32 | C[C@]12CC[C@H]3C(=CCc4cc(O)ccc43)[C@@H]1CCC2=O [EQUILIN] | 3.09
33 | C#C[C@]1(O)CC[C@H]2[C@@H]3CC[C@H]4CC(=O)CC[C@]4(C)[C@H]3CC[C@@]21C | 0.182
34 | C[C@@H]1CC2=CC(=O)CC[C@]2(C)[C@@]2(F)CC[C@]3(C)[C@@H](O)CC[C@H]3[C@H]12 | 3.09
35 | C[C@@H]1CC2=CC(=O)CC[C@]2(C)[C@H]2CC[C@@]3(C)[C@@H](CC[C@]3(C)O)[C@H]12 [BOLASTERONE] | 1.74
36 | C[C@@H]1CC2=CC(=O)C=C[C@]2(C)[C@H]2CC[C@@]3(C)[C@@H](CC[C@]3(C)O)[C@H]12 | 2.69
37 | C#C[C@]1(O)CC[C@H]2[C@@H]3CC=C4C[C@@H](O)CC[C@]4(C)[C@H]3CC[C@@]21C | 1.23
38 | C[C@@H]1CC2=CC(=O)C=C[C@]2(C)[C@H]2CC[C@]3(C)[C@@H](O)CC[C@H]3[C@H]12 | 4.37
39 | C#C[C@]1(O)CC[C@H]2[C@@H]3CCC4=C[C@@H](O)CC[C@]4(C)C3C(=C)C[C@@]21CC (some centres undefined) | 13.2
40 | C[C@]12CCC(=O)C[C@@H]1CC[C@@H]1[C@@H]2CC[C@]2(C)[C@@H](O)CC[C@@H]12 [STANOLONE] | 0.182
41 | C[C@]12CCC(=O)C[C@@H]1[C@@H](F)C[C@@H]1[C@@H]2CC[C@]2(C)[C@@H](O)CC[C@@H]12 | 0.891
42 | C[C@]12CC[C@@H]3c4ccc(O)cc4CC[C@H]3[C@@H]1C[C@@H](O)[C@@H]2O [ESTRIOL] | 234
43 | C[C@@]12CCC[C@H]1[C@@H]1CCc3cc(O)ccc3[C@H]1CC2 | 5.01
44 | C[C@]12CCC(=O)C=C1CC[C@@H]1[C@@H]2[C@@H](O)C[C@@]2(C)[C@H]1CC[C@]2(O)C(=O)CO [HYDROCORTISONE] | 631
45 | Cc1c(Cc2ccccc2)c(=O)oc2c(C)c(O)ccc12 | 2190
46 | C#C[C@]1(O)CC[C@H]2[C@@H]3CCC4=CCCC[C@@H]4[C@H]3C(=C)C[C@@]21CC [DESOGESTREL] | 251
47 | CC[C@H](C1CCCCC1)[C@@H](CC)C1CCCCC1 | 2450
48 | C[C@]12CC[C@@H]3c4ccc(O)cc4C=C[C@H]3[C@@H]1CC[C@@H]2O | 1.74
49 | C#C[C@]1(O)CC[C@H]2[C@@H]3CCc4cc(O)ccc4[C@H]3CC[C@@]21C [ETHINYL ESTRADIOL] | 155
50 | C[C@]12CC[C@H]3[C@@H](CC=C4C[C@@H](O)CC[C@@H]43)[C@@H]1CC[C@@H]2O | 0.288

Row | SMILES | Kd [nM]
51 | C[C@H]1C[C@H]2[C@@H]3CC[C@H](O)[C@@]3(C)CC[C@@H]2[C@@]2(C)CCC(=O)C=C12 | 4.37
52 | CC(=O)[C@H]1CC[C@H]2[C@@H]3CC=C4C[C@@H](O)CC[C@]4(C)[C@H]3CC[C@]12C [PREGNENOLONE] | 70.8
53 | CC(=O)[C@@]1(O)CC[C@H]2[C@@H]3CCC4=CC(=O)CC[C@]4(C)[C@H]3CC[C@@]21C [HYDROXYPROGESTERONE] | 100
54 | C[C@]1(O)CC[C@H]2[C@@H]3CCC4=CC(=O)CC[C@]4(C)[C@@]3(F)C(=O)C[C@@]21C | 5.89
55 | C[C@]12CC[C@@H](O)C[C@@H]1CC[C@@H]1[C@@H]2CC[C@]2(C)[C@@H](O)CC[C@@H]12 [ANDROSTANDIOL] | 0.776
56 | COc1cc(/C=N/CCc2ccccc2)ccc1O | 589
57 | C[C@]12CCC(=O)C[C@@H]1CC[C@@H]1[C@@H]2[C@@H](O)C[C@@]2(C)[C@H]1CC[C@@]2(O)CCCN | 11000
58 | C[C@]12CCC(=O)C=C1CC[C@@H]1[C@@H]2CC[C@@]2(C)[C@H]1CC[C@]2(O)C(=O)CO [CORTODOXONE] | 36.3
59 | C[C@]12CC[C@H]3[C@@H](CCC4=CC(=O)CC[C@@H]43)[C@@H]1CC[C@@H]2O [NANDROLONE] | 501
60 | C[C@@H]1C[C@H]2C[C@@H](O)CC[C@]2(C)[C@H]2CC[C@@]3(C)[C@@H](CC[C@]3(C)O)[C@H]12 | 3.47
61 | C#C[C@]1(O)CC[C@H]2[C@@H]3CC[C@H]4CC(=O)CC[C@@H]4[C@H]3C(=C)C[C@@]21CC | 1.58
62 | C#C[C@]1(O)CC[C@H]2[C@@H]3CCC4=CC(=O)CCC4=C3C=C[C@@]21CC [GESTRINONE] | 7.76
63 | CC(=O)O[C@]1(C(C)=O)CC[C@H]2[C@@H]3C[C@H](C)C4=CC(=O)CC[C@]4(C)[C@H]3CC[C@@]21C [MEDROXYPROGESTERONE ACETATE] | 631
64 | O=C1C[C@@H](c2ccc(O)cc2)Oc2cc(O)cc(O)c21 (stereo in doubt; 82) [NARINGENIN] | 28200
65 | C#C[C@]1(O)CC[C@H]2[C@H]3[C@H](C(=C)C[C@@]21CC)[C@H]1CC[C@@H](O)C[C@@H]1C[C@H]3C | 5.37
66 | C[C@]12CC[C@@H]3c4ccc(O)cc4CC[C@H]3[C@@H]1CCC2=O [ESTRONE] | 6.61
67 | C#C[C@]1(O)CC[C@H]2[C@@H]3CCC4=CC(=O)CC[C@@H]4[C@H]3CC[C@@]21C [NORETHINDRONE] | 10.7
68 | C#C[C@]1(O)CC[C@H]2[C@@H]3[C@H](C)C=C4CC(O)CC[C@]4(C)[C@H]3CC[C@@]21C (some centres undefined) | 363
69 | Oc1ccc(-c2cc3ccc(O)cc3o2)cc1 | 832
70 | C[C@H]1CC(=O)C[C@@H]2CC[C@H]3[C@@H]4CC[C@H](O)[C@@]4(C)CC[C@@H]3[C@]21C [MESTEROLONE] | 0.251
71 | C[C@]12CCC(=O)C[C@@H]1CC[C@@H]1[C@@H]2CC[C@@]2(C)[C@H]1CC[C@]2(C)O [MESTANOLONE] | 1.55
72 | C[C@@H]1CC2=CC(=O)CC[C@@H]2[C@H]2CC[C@@]3(C)C(=CC[C@@H]3O)[C@@H]21 | 0.851
73 | COc1cc(C(=O)OC2CC3CCC2(C)C3(C)I)ccc1O (centres undefined) | 407
74 | C[C@]12CC[C@@H]3c4ccc(OC(=O)c5ccccc5)cc4CC[C@H]3[C@@H]1CC[C@@H]2O [ESTRADIOL BENZOATE] | 1150
